{"source": "patent US11484539B2", "about": "“Compounds and their uses for alleviating menopause-associated symptoms” (Estetra SPRL, priority 2018, dated 2022)", "tested_on": "post-menopausal women", "assay": "Weekly severity of moderate to severe VMS, dose-finding study", "assay_type": "in vivo", "source_text": "To determine the Minimum Effective Dose (MED), firstly the selection criteria required that patients presented at least 7 moderate to severe VMS/day or at least 50 moderate to severe VMS/week in the week preceding randomization. Secondly, a placebo group was included in a double-blind fashion. Thirdly, the total patient number was such that statistical significance could be obtained between separate arms of the study. Fourthly, the absolute change from baseline in weekly frequency of moderate to severe VMS was taken into account. An analysis of covariance (ANCOVA) was performed based on the untransformed change in weekly frequency of moderate to severe VMS from baseline. Finally, the change in severity from baseline was evaluated. For this, the Severity Scoring System of VMS was documented by the subjects as follows: • a score of Mild (1) for a sensation of heat without sweating; • a score of Moderate (2) for a sensation of heat with sweating/the subject is able to continue activity; and • a score of Severe (3) for a sensation of heat with sweating/which causes cessation of activity.\nIn addition, a severity score of zero was attributed to the patients who have experienced a 100% VMS relief during a given week.\nFrom these score records, the severity at baseline was calculated by taking into account only moderate and severe VMS, such that the total number of moderate VMS during the 7 days of the baseline week was multiplied by 2 and added to the total number of severe VMS during the 7 days of the baseline week multiplied by 3. This total was then divided by the total number of moderate and severe VMS during the baseline week.\nThe severity at weeks 4 and 12 was calculated using the following formula for each of these weeks: • the number of mild VMS during 7 days multiplied by 1; • the number of moderate VMS during 7 days multiplied by 2; • the number of severe VMS during 7 days multiplied by 3. and adding the 3 resulting numbers together before dividing this total by the total number of mild, moderate and severe VMS during the 7 days of the week.\nThis method was used to generate the data included in Example 1 further below, under section A. b) “VMS Severity”.\nIn order to better analyse the data recorded in this study, treatment groups have been compared using an ANCOVA (analysis of covariance) with respect to the change in severity of moderate to severe VMS from baseline to mild, moderate and severe VMS at week 4 and week 12 for each active treatment versus placebo. For women who experienced 100% VMS relief at week 4 and/or week 12, a value of zero was attributed. The ANCOVA model includes treatment (“trt1”) as a fixed effect and baseline (“base”) as a covariate. • b) Covariate significance", "data": [{"smiles": "C[C@]12CC[C@@H]3c4ccc(O)cc4CC[C@H]3[C@@H]1[C@@H](O)[C@@H](O)[C@@H]2O", "note": "[E4, 1,3,5 (10)-estratrien-3,15alpha,16alpha,17beta-tetrol]", "values": [{"measurement": "LS adjusted mean change from baseline in weekly severity of moderate to severe VMS", "setting": "2.5 mg E4, week 4", "value": "−0.3411"}, {"measurement": "LS adjusted mean relative change from baseline in weekly severity of moderate to severe VMS", "setting": "2.5 mg E4, week 4", "value": "−0.1453"}, {"measurement": "LS adjusted mean change from baseline in weekly severity of moderate to severe VMS", "setting": "2.5 mg E4, week 12", "value": "−0.6296"}, {"measurement": "LS adjusted mean relative change from baseline in weekly severity of moderate to severe VMS", "setting": "2.5 mg E4, week 12", "value": "−0.275"}, {"measurement": "Mean change from baseline in weekly severity of moderate to severe VMS", "setting": "2.5 mg E4 QD per os, week 1", "value": "−0.1542"}, {"measurement": "Relative change (% from baseline) in weekly severity of moderate to severe VMS, mean", "setting": "2.5 mg E4 QD per os, week 1", "value": "−7", "unit": "%"}, {"measurement": "Mean change from baseline in weekly severity of moderate to severe VMS", "setting": "2.5 mg E4 QD per os, week 2", "value": "−0.2112"}, {"measurement": "Relative change (% from baseline) in weekly severity of moderate to severe VMS, mean", "setting": "2.5 mg E4 QD per os, week 2", "value": "−9", "unit": "%"}, {"measurement": "Mean change from baseline in weekly severity of moderate to severe VMS", "setting": "2.5 mg E4 QD per os, week 3", "value": "−0.3246"}, {"measurement": "Relative change (% from baseline) in weekly severity of moderate to severe VMS, mean", "setting": "2.5 mg E4 QD per os, week 3", "value": "−14", "unit": "%"}, {"measurement": "Mean change from baseline in weekly severity of moderate to severe VMS", "setting": "2.5 mg E4 QD per os, week 4", "value": "−0.3373"}, {"measurement": "Relative change (% from baseline) in weekly severity of moderate to severe VMS, mean", "setting": "2.5 mg E4 QD per os, week 4", "value": "−15", "unit": "%"}, {"measurement": "Mean change from baseline in weekly severity of moderate to severe VMS", "setting": "2.5 mg E4 QD per os, week 5", "value": "−0.3984"}, {"measurement": "Relative change (% from baseline) in weekly severity of moderate to severe VMS, mean", "setting": "2.5 mg E4 QD per os, week 5", "value": "−17", "unit": "%"}, {"measurement": "Mean change from baseline in weekly severity of moderate to severe VMS", "setting": "2.5 mg E4 QD per os, week 6", "value": "−0.5014"}, {"measurement": "Relative change (% from baseline) in weekly severity of moderate to severe VMS, mean", "setting": "2.5 mg E4 QD per os, week 6", "value": "−22", "unit": "%"}, {"measurement": "Mean change from baseline in weekly severity of moderate to severe VMS", "setting": "2.5 mg E4 QD per os, week 7", "value": "−0.4562"}, {"measurement": "Relative change (% from baseline) in weekly severity of moderate to severe VMS, mean", "setting": "2.5 mg E4 QD per os, week 7", "value": "−20", "unit": "%"}, {"measurement": "Mean change from baseline in weekly severity of moderate to severe VMS", "setting": "2.5 mg E4 QD per os, week 8", "value": "−0.5359"}, {"measurement": "Relative change (% from baseline) in weekly severity of moderate to severe VMS, mean", "setting": "2.5 mg E4 QD per os, week 8", "value": "−24", "unit": "%"}, {"measurement": "Mean change from baseline in weekly severity of moderate to severe VMS", "setting": "2.5 mg E4 QD per os, week 9", "value": "−0.5465"}, {"measurement": "Relative change (% from baseline) in weekly severity of moderate to severe VMS, mean", "setting": "2.5 mg E4 QD per os, week 9", "value": "−24", "unit": "%"}, {"measurement": "Mean change from baseline in weekly severity of moderate to severe VMS", "setting": "2.5 mg E4 QD per os, week 10", "value": "−0.6052"}, {"measurement": "Relative change (% from baseline) in weekly severity of moderate to severe VMS, mean", "setting": "2.5 mg E4 QD per os, week 10", "value": "−26", "unit": "%"}, {"measurement": "Mean change from baseline in weekly severity of moderate to severe VMS", "setting": "2.5 mg E4 QD per os, week 11", "value": "−0.5564"}, {"measurement": "Relative change (% from baseline) in weekly severity of moderate to severe VMS, mean", "setting": "2.5 mg E4 QD per os, week 11", "value": "−25", "unit": "%"}, {"measurement": "Mean change from baseline in weekly severity of moderate to severe VMS", "setting": "2.5 mg E4 QD per os, week 12", "value": "−0.6279"}, {"measurement": "Relative change (% from baseline) in weekly severity of moderate to severe VMS, mean", "setting": "2.5 mg E4 QD per os, week 12", "value": "−28", "unit": "%"}, {"measurement": "Difference with placebo, LS adjusted mean, absolute change in weekly severity of moderate to severe VMS", "setting": "2.5 mg E4 vs placebo, week 4", "value": "−0.01329"}, {"measurement": "Difference with placebo, LS adjusted mean, relative change in weekly severity of moderate to severe VMS", "setting": "2.5 mg E4 vs placebo, week 4", "value": "−0.004358"}, {"measurement": "Difference with placebo, LS adjusted mean, absolute change in weekly severity of moderate to severe VMS", "setting": "2.5 mg E4 vs placebo, week 12", "value": 0.02869}, {"measurement": "Difference with placebo, LS adjusted mean, relative change in weekly severity of moderate to severe VMS", "setting": "2.5 mg E4 vs placebo, week 12", "value": 0.004705}, {"measurement": "LS adjusted mean change from baseline in weekly severity of moderate to severe VMS", "setting": "5 mg E4, week 4", "value": "−0.2386"}, {"measurement": "LS adjusted mean relative change from baseline in weekly severity of moderate to severe VMS", "setting": "5 mg E4, week 4", "value": "−0.09556"}, {"measurement": "LS adjusted mean change from baseline in weekly severity of moderate to severe VMS", "setting": "5 mg E4, week 12", "value": "−0.4026"}, {"measurement": "LS adjusted mean relative change from baseline in weekly severity of moderate to severe VMS", "setting": "5 mg E4, week 12", "value": "−0.1649"}, {"measurement": "Mean change from baseline in weekly severity of moderate to severe VMS", "setting": "5 mg E4 QD per os, week 1", "value": "−0.098"}, {"measurement": "Relative change (% from baseline) in weekly severity of moderate to severe VMS, mean", "setting": "5 mg E4 QD per os, week 1", "value": "−4", "unit": "%"}, {"measurement": "Mean change from baseline in weekly severity of moderate to severe VMS", "setting": "5 mg E4 QD per os, week 2", "value": "−0.1199"}, {"measurement": "Relative change (% from baseline) in weekly severity of moderate to severe VMS, mean", "setting": "5 mg E4 QD per os, week 2", "value": "−5", "unit": "%"}, {"measurement": "Mean change from baseline in weekly severity of moderate to severe VMS", "setting": "5 mg E4 QD per os, week 3", "value": "−0.1574"}, {"measurement": "Relative change (% from baseline) in weekly severity of moderate to severe VMS, mean", "setting": "5 mg E4 QD per os, week 3", "value": "−7", "unit": "%"}, {"measurement": "Mean change from baseline in weekly severity of moderate to severe VMS", "setting": "5 mg E4 QD per os, week 4", "value": "−0.2341"}, {"measurement": "Relative change (% from baseline) in weekly severity of moderate to severe VMS, mean", "setting": "5 mg E4 QD per os, week 4", "value": "−10", "unit": "%"}, {"measurement": "Mean change from baseline in weekly severity of moderate to severe VMS", "setting": "5 mg E4 QD per os, week 5", "value": "−0.1683"}, {"measurement": "Relative change (% from baseline) in weekly severity of moderate to severe VMS, mean", "setting": "5 mg E4 QD per os, week 5", "value": "−7", "unit": "%"}, {"measurement": "Mean change from baseline in weekly severity of moderate to severe VMS", "setting": "5 mg E4 QD per os, week 6", "value": "−0.3212"}, {"measurement": "Relative change (% from baseline) in weekly severity of moderate to severe VMS, mean", "setting": "5 mg E4 QD per os, week 6", "value": "−14", "unit": "%"}, {"measurement": "Mean change from baseline in weekly severity of moderate to severe VMS", "setting": "5 mg E4 QD per os, week 7", "value": "−0.2787"}, {"measurement": "Relative change (% from baseline) in weekly severity of moderate to severe VMS, mean", "setting": "5 mg E4 QD per os, week 7", "value": "−12", "unit": "%"}, {"measurement": "Mean change from baseline in weekly severity of moderate to severe VMS", "setting": "5 mg E4 QD per os, week 8", "value": "−0.3239"}, {"measurement": "Relative change (% from baseline) in weekly severity of moderate to severe VMS, mean", "setting": "5 mg E4 QD per os, week 8", "value": "−14", "unit": "%"}, {"measurement": "Mean change from baseline in weekly severity of moderate to severe VMS", "setting": "5 mg E4 QD per os, week 9", "value": "−0.3249"}, {"measurement": "Relative change (% from baseline) in weekly severity of moderate to severe VMS, mean", "setting": "5 mg E4 QD per os, week 9", "value": "−14", "unit": "%"}, {"measurement": "Mean change from baseline in weekly severity of moderate to severe VMS", "setting": "5 mg E4 QD per os, week 10", "value": "−0.3667"}, {"measurement": "Relative change (% from baseline) in weekly severity of moderate to severe VMS, mean", "setting": "5 mg E4 QD per os, week 10", "value": "−15", "unit": "%"}, {"measurement": "Mean change from baseline in weekly severity of moderate to severe VMS", "setting": "5 mg E4 QD per os, week 11", "value": "−0.4161"}, {"measurement": "Relative change (% from baseline) in weekly severity of moderate to severe VMS, mean", "setting": "5 mg E4 QD per os, week 11", "value": "−18", "unit": "%"}, {"measurement": "Mean change from baseline in weekly severity of moderate to severe VMS", "setting": "5 mg E4 QD per os, week 12", "value": "−0.4007"}, {"measurement": "Relative change (% from baseline) in weekly severity of moderate to severe VMS, mean", "setting": "5 mg E4 QD per os, week 12", "value": "−17", "unit": "%"}, {"measurement": "Difference with placebo, LS adjusted mean, absolute change in weekly severity of moderate to severe VMS", "setting": "5 mg E4 vs placebo, week 4", "value": 0.08925}, {"measurement": "Difference with placebo, LS adjusted mean, relative change in weekly severity of moderate to severe VMS", "setting": "5 mg E4 vs placebo, week 4", "value": 0.04543}, {"measurement": "Difference with placebo, LS adjusted mean, absolute change in weekly severity of moderate to severe VMS", "setting": "5 mg E4 vs placebo, week 12", "value": 0.2557}]}]}
